Source: PubChem BioAssay (NCI)
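Values below derive from 48-hour exposures of cells grown in 96-well plates, with endpoints linearly interpolated between the two concentrations bracketing the appropriate inhibition level. GI50 marks 50% less growth. TGI is the concentration that stops growth completely.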

Tests used:
Experiment in all cases: NCI tumour cell line growth inhibition, 48 h
[1] = tested on: 786-0 renal
[2] = tested on: NCI-H460 lung
[3] = tested on: HT29 colon
[4] = tested on: M14 melanoma
[5] = tested on: HCT-15 colon
[6] = tested on: HS 578T breast
[7] = tested on: SN12C renal
[8] = tested on: MDA-MB-435
[9] = tested on: SK-MEL-28 melanoma
[10] = tested on: SNB-75 CNS
[11] = tested on: SR leukemia
[12] = tested on: PC-3 prostate
[13] = tested on: SK-OV-3 ovarian
[14] = tested on: SK-MEL-2 melanoma
[15] = tested on: OVCAR-8 ovarian
[16] = tested on: HL-60(TB) leukemia
[17] = tested on: K-562 leukemia
[18] = tested on: U251 CNS
[19] = tested on: HOP-62 NSCLC
[20] = tested on: TK-10 renal
[21] = tested on: RXF 393 renal
[22] = tested on: MCF7 breast
[23] = tested on: RPMI-8226 leukemia
[24] = tested on: CAKI-1 renal
[25] = tested on: UACC-62 melanoma
[26] = tested on: MDA-MB-231 breast
[27] = tested on: SNB-19 CNS
[28] = tested on: SF-295 CNS
[29] = tested on: MALME-3M melanoma
[30] = tested on: SF-539 CNS
[31] = tested on: DU-145 prostate
[32] = tested on: OVCAR-3 ovarian
[33] = tested on: T-47D breast
[34] = tested on: COLO 205 colon
[35] = tested on: CCRF-CEM leukemia
[36] = tested on: OVCAR-5 ovarian
[37] = tested on: LOX IMVI melanoma
[38] = tested on: UO-31 renal
[39] = tested on: ACHN renal
[40] = tested on: NCI-H226 lung
[41] = tested on: MOLT-4 leukemia
[42] = tested on: A549 NSCLC
[43] = tested on: IGROV1 ovarian
[44] = tested on: SK-MEL-5 melanoma
[45] = tested on: A498 renal
[46] = tested on: HOP-92 NSCLC
[47] = tested on: KM12 colon
[48] = tested on: HCC-2998 colon
[49] = tested on: NCI/ADR-RES ovarian
[50] = tested on: NCI-H23 lung

`COC(=O)[C@]12CC[C@@H](C(=O)/C=C/c3cccnc3)[C@@H]1[C@H]1CC[C@@H]3[C@@]4(C)C/C(=C/c5cccnc5)C(=O)C(C)(C)[C@@H]4CC[C@@]3(C)[C@]1(C)CC2` was tested, and the GI50 [1] was 374 nM, the TGI [1] was 1330 nM and the GI50 [2] was 510 nM. The TGI [2] was 1570 nM, the GI50 [3] was 319 nM and the TGI [3] was 1020 nM. The GI50 [4] was 310 nM, the TGI [4] was 1010 nM and the GI50 [5] was 247 nM. For the same molecule, the TGI [5] was 666 nM, the GI50 [6] was 395 nM and the TGI [6] was 1930 nM. The GI50 [7] was 429 nM, the TGI [7] was 1670 nM and the GI50 [8] was 204 nM. The TGI [8] was 420 nM, the GI50 [9] was 245 nM and the TGI [9] was 565 nM. The GI50 [10] was 1350 nM, the TGI [10] was 2630 nM and the GI50 [11] was 281 nM. For the same molecule, the TGI [11] was 1270 nM, the GI50 [12] was 412 nM and the TGI [12] was 2090 nM. It also gave a GI50 [13] of 2730 nM, a TGI [13] of 6890 nM and a GI50 [14] of 296 nM. The TGI [14] was 1020 nM, the GI50 [15] was 388 nM and the TGI [15] was 1870 nM. The GI50 [16] was 292 nM, the TGI [16] was 1510 nM and the GI50 [17] was 309 nM. For the same molecule, the TGI [17] was > 100000 nM, the GI50 [18] was 360 nM and the TGI [18] was 1340 nM. The GI50 [19] was 789 nM, the TGI [19] was 2340 nM and the GI50 [20] was 701 nM. It also gave a TGI [20] of 2070 nM, a GI50 [21] of 219 nM and a TGI [21] of 509 nM. For the same molecule, the GI50 [22] was 387 nM, the TGI [22] was 1830 nM and the GI50 [23] was 258 nM. For the same molecule, the TGI [23] was 838 nM, the GI50 [24] was 716 nM and the TGI [24] was 2000 nM. For the same molecule, the GI50 [25] was 327 nM, the TGI [25] was 1050 nM and the GI50 [26] was 223 nM. For the same molecule, the TGI [26] was 508 nM, the GI50 [27] was 665 nM and the TGI [27] was 1970 nM. It also gave a GI50 [28] of 382 nM, a TGI [28] of 1440 nM and a GI50 [29] of 201 nM. It also gave a TGI [29] of 416 nM, a GI50 [30] of 207 nM and a TGI [30] of 473 nM. The GI50 [31] was 773 nM, the TGI [31] was 2030 nM and the GI50 [32] was 231 nM. The TGI [32] was 514 nM, the GI50 [33] was 405 nM and the TGI [33] was 2420 nM. For the same molecule, the GI50 [34] was 357 nM, the TGI [34] was 1350 nM and the GI50 [35] was 334 nM. The TGI [35] was 1650 nM, the GI50 [36] was 369 nM and the TGI [36] was 1340 nM. The GI50 [37] was 210 nM, the TGI [37] was 442 nM and the GI50 [38] was 167 nM. The TGI [38] was 331 nM, the GI50 [39] was 191 nM and the TGI [39] was 348 nM. For the same molecule, the GI50 [40] was 260 nM, the TGI [40] was 597 nM and the GI50 [41] was 359 nM. For the same molecule, the TGI [41] was 1770 nM, the GI50 [42] was 401 nM and the TGI [42] was 2310 nM. For the same molecule, the GI50 [43] was 241 nM, the TGI [43] was 570 nM and the GI50 [44] was 335 nM. It also gave a TGI [44] of 983 nM, a GI50 [45] of 224 nM and a TGI [45] of 947 nM. For the same molecule, the GI50 [46] was 434 nM, the TGI [46] was 1730 nM and the GI50 [47] was 317 nM. For the same molecule, the TGI [47] was 1050 nM.

`NC(N)=N/N=C\c1c(-c2cccc([N+](=O)[O-])c2)nc2sc(Cl)cn12` was tested, and the TGI [1] was > 100000 nM, the TGI [48] was 4920 nM and the TGI [49] was > 100000 nM. For the same molecule, the TGI [5] was > 100000 nM, the TGI [6] was > 100000 nM and the TGI [50] was 5690 nM. For the same molecule, the TGI [11] was 3070 nM, the TGI [17] was > 100000 nM and the TGI [25] was > 100000 nM. The TGI [29] was 5040 nM, the TGI [33] was 4400 nM and the TGI [36] was > 100000 nM. The TGI [37] was > 100000 nM, the TGI [38] was 3320 nM and the TGI [39] was > 100000 nM. For the same molecule, the TGI [40] was > 100000 nM, the TGI [41] was 4530 nM and the TGI [43] was 4050 nM. The TGI [44] was 78200 nM and the TGI [45] was 62700 nM.
